Results on 8 compounds are retold here after patent US20220251116A1, “ALKYLBORONIC ACIDS AS ARGINASE INHIBITORS” (Guangdong Newopp Biopharmaceuticals Co., Ltd., priority 2019, published 2022).

Structures can show the parent of a compound that is named as a salt.

The target of assay [1] is recombinant human arginase 1 (Homo sapiens, UniProt P05089). The assay can be described thus: Arginase inhibitory activity test, enzymatic assay based on urea measurement (Arg 1).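 Also: enzyme incubated with L-arginine substrate and compound at 37 °C for 120 min, urea product detected colorimetrically by absorbance at 450 nm, background from wells lacking enzyme.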
Description: (§1) An enzymatic assay with recombinant human arginases 1 or 2 was used to measure inhibitory activity of the compounds. The assay is based on urea measurement, which is a product of L-arginine enzymatic degradation.
(§2) Briefly, arginase and the substrate solution containing L-arginine were incubated in the absence or presence of varying concentrations of compounds at 37° C. for 120 min. For the background correction, only the substrate solution was added without arginase. The urea detection reagent from QuantiChrome™ Urea assay kit (BioAssay Systems, CA) was added to develop the color product. After 60 min at room temperature, the absorbance was measured at 450 nm with CLARIOstar (BMG LABTECH). Urea was used as the standard.
Assay [2] has as its target T1, recombinant human arginase 2 (Homo sapiens, UniProt P78540).
T1 sequence (P78540 23-354): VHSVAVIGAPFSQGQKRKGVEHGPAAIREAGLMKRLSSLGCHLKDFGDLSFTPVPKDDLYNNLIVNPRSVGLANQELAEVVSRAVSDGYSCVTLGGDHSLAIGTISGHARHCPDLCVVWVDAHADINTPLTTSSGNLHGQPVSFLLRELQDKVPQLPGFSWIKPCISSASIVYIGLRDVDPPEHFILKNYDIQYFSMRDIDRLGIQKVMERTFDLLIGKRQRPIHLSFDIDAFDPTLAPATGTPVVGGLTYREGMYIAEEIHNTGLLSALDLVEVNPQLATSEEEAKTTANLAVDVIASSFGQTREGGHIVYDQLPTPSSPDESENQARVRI
Nature of the assay: Arginase inhibitory activity test, enzymatic assay based on urea measurement (Arg 2). It counts as biochemical. The settings on record: 37° C. for 120 min, urea detection, read-out: Arg 2 enzymatic potency. The text has this:
Urea was used as the standard.

Assay [3] deals with T2, recombinant human arginase 1 (Homo sapiens, UniProt P05089).
T2 sequence (P05089 1-322): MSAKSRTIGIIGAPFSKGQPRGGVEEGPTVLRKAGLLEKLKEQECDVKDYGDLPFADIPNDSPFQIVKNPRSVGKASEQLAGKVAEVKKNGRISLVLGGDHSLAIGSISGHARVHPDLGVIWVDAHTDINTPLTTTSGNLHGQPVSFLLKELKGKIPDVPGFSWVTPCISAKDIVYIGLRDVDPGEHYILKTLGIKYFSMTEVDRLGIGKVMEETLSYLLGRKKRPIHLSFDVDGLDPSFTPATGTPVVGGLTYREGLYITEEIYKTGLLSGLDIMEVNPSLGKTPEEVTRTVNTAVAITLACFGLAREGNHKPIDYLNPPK
The assay can be described thus: Arginase inhibitory activity test, enzymatic assay based on urea measurement (Arg 1). The source holds these as a separate data set.
Description: as §1, §2

`CN(C[C@H](N)C(F)F)S(=O)(=O)N1C[C@H](CCCB(O)O)[C@](N)(C(=O)O)C1` (racemic): the IC50 in assay [1] is 100 to 1000 nM.

Regarding `N[C@@H](CNS(=O)(=O)N1C[C@H](CCCB(O)O)[C@](N)(C(=O)O)C1)C(F)F` (racemic), the IC50 in assay [1] lay in the range of 100 to 1000 nM.

For the compound `CC(C)(N)CNS(=O)(=O)N1C[C@H](CCCB(O)O)[C@](N)(C(=O)O)C1` (racemic) [Example 25, (rac)-trans-3-amino-1-(N-(2-amino-2-methylpropyl)sulfamoyl)-4-(3-boronopropyl)pyrrolidine-3-carboxylic acid, (1:2) 2,2,2-trifluoroacetic acid salt], the IC50 in assay [2] and in assay [3] was less than 100 nM each time.

`N[C@@]1(C(=O)O)CN(S(N)(=O)=O)C[C@@H]1CCCB(O)O` (racemic) [Example 1, (rac)trans-3-amino-4-(3-boronopropyl)-1-sulfamoylpyrrolidine-3-carboxylic acid, (1:1) 2,2,2-trifluoroacetic acid salt]: the IC50 in assay [2] is 100 to 1000 nM; in assay [3], less than 100 nM.

For the compound `Nc1c(N2C[C@H](CCCB(O)O)[C@](N)(C(=O)O)C2)c(=O)c1=O` (racemic) [Example 3, (rac)trans-3-amino-1-(2-amino-3,4-dioxocyclobut-1-en-1-yl)-4-(3-boronopropyl)pyrrolidine-3-carboxylic acid, (1:1) 2,2,2-trifluoroacetic acid salt], the IC50 in assay [2] and in assay [3] was 100 to 1000 nM each time.

On to `N=C(N)N1C[C@H](CCCB(O)O)[C@](N)(C(=O)O)C1` (racemic) [Example 37, rac-(trans)-3-amino-4-(3-boronopropyl)-1-carbamimidoylpyrrolidine-3-carboxylic acid, 2,2,2-trifluoroacetic acid salt (1:2)], for which the IC50 in assay [2] and in assay [3] was 100 to 1000 nM in each case.

Turning to `NCCNS(=O)(=O)N1C[C@H](CCCB(O)O)[C@](N)(C(=O)O)C1` (racemic) [Example 5, (rac)trans-3-amino-1-(N-(2-aminoethyl)sulfamoyl)-4-(3-boronopropyl)pyrrolidine-3-carboxylic acid compound with 2,2,2-trifluoroacetic acid (1:2)], the IC50 in assay [2] and in assay [3] was less than 100 nM in each case.

`N[C@@]1(C(=O)O)CN(S(=O)(=O)Nc2ccccn2)C[C@@H]1CCCB(O)O` (racemic) [Example 4, (rac)trans-3-amino-4-(3-boronopropyl)-1-(N-(pyridin-2-yl)sulfamoyl)pyrrolidine-3-carboxylic acid compound with 2,2,2-trifluoroacetic acid (1:2)]: the IC50 in assay [2] and in assay [3] was 100 to 1000 nM throughout.
